Results: patent US11116817B2, “Antimicrobial agents and compositions comprising the same” (THE CURATORS OF THE UNIVERSITY OF MISSOURI, priority 2017, dated 2021)
Positions of bridges follow the written chain, without caps; N, C: chain ends. Non-standard residues stand in square brackets, D forms with d. No end group written: not given here. Abu = CC[C@H](N)C(=O)O

What was measured:
[1] = test system: JAWSII cells; experiment: Chemotaxis assay (48-well microchemotaxis chamber); format: cell-based, mouse; details: for chemotactic index (C.I.): peptide 64 μg/ml
Experimental: (§1) Migration of JAWSII and CCR-2 transfected CHO-K1 cells in response to CAMPs (SEQ ID NOs: 1, 2, 3, and 4) was determined using a 48-well microchemotaxis chamber technique as previously described. Chemotaxis buffer (Minimum Essential Medium containing 0.1% BSA, 100 U/ml penicillin, and 100 μg/ml streptomycin) and bacterial peptide N-Formyl-methionyl-leucyl-phenylalanine (fMLF, Sigma-Aldrich) were included as negative and positive controls, respectively. The results were presented as chemotactic index (C.I.)=number of migrated cells induced by CAMPs (SEQ ID NOs: 1, 2, 3, and 4)/number of migrated cells induced by chemotactic buffer. The assay was repeated five times.
as §1, with “CCR2-CHO-K1” for “CCR-2 transfected CHO-K1”, “the analogues” for “CAMPs (SEQ ID NOs: 1, 2, 3, and 4)”, “For JAWSII cells, chemotaxis” for “Chemotaxis”, “(C.I.). C.I.=number” for “(C.I.)=number”, “the analogues/number” for “CAMPs (SEQ ID NOs: 1, 2, 3, and 4)/number”

[2] = test system: CCR-2 transfected CHO-K1 cells; experiment: Chemotaxis assay (48-well microchemotaxis chamber); format: cell-based, hamster
Experimental: as §1
as §1, with “CCR2-CHO-K1” for “CCR-2 transfected CHO-K1”, “the analogues” for “CAMPs (SEQ ID NOs: 1, 2, 3, and 4)”, “For JAWSII cells, chemotaxis” for “Chemotaxis”, “(C.I.). C.I.=number” for “(C.I.)=number”, “the analogues/number” for “CAMPs (SEQ ID NOs: 1, 2, 3, and 4)/number”

[3] = test system: E. coli, S. Typhimurium, P. aeruginosa and S. aureus; experiment: Antimicrobial activity assay (colony counting), Example Two, statements over all four bacteria; format: cell-based; details: for impact of NaCl on the killing activity: NaCl 5 to 150 mM; for killing activity compared with parent peptide: 2 to 128 μg/ml, 37° C., 2 hours
Experimental: (§2) Escherichia coli (ATCC 25922), Pseudomonas aeruginosa (ATCC 27853), Salmonella enteric serovar Typhimurium (ATCC 14028) and Staphylococcus aureus (ATCC 29213) were used to assess the antimicrobial activity of AvBD analogues (SEQ ID NOs: 5, 6, 7, 8, 9, 10, 11, 12, and 13). All bacterial strains were grown on Luria-Bertani (LB) agar plates or Trypticase Soy Agar with 5% Sheep Blood (TSA, Thermo Fisher Scientific) plates at 37° C. Antimicrobial activity was determined by a colony counting assay. In brief, bacteria were suspended in 100-fold diluted Mueller Hinton broth with 5 mM NaCl (minimal growth medium) to obtain a final bacterial concentration of 2×10^5 CFU/ml. Twenty-five microliters of bacterial suspension and 25 μl of AvBD analogue (SEQ ID NOs: 5, 6, 7, 8, 9, 10, 11, 12, and 13) solution were mixed in the wells of a 96-well polypropylene microtiter plate (Nunc™, Thermo Fisher Scientific). The final peptide concentrations were 2, 4, 8, 16, 32, 64 and 128 μg/ml. The minimal growth medium without AvBD peptide (SEQ ID NO: 5, 6, 7, 8, 9, 10, 11, 12, and 13) was included as a negative control. The bacterial-peptide mixtures were incubated at 37° C. for 2 hours, 10-fold serially diluted and plated on LB agar plates. The numbers of bacterial colonies were enumerated after 16 hours of incubation at 37° C. Antimicrobial activity was expressed as percent of killing using the following formula: (CPUcontrol−CFUtreated)/CFUcontrol×100%. To assess the resistance of AvBD analogues (SEQ ID NOs: 5, 6, 7, 8, 9, 10, 11, 12, and 13) to sodium chloride (NaCl), antimicrobial assays were carried out in the presence of 5 mM, 50 mM, 100 mM or 150 mM NaCl. All assays were performed in triplicate.

[4] = test system: P. aeruginosa (ATCC 27853); format: cell-based; details: low salt condition (5 mM NaCl)
Experimental: (§3) The minimum inhibitory concentrations (MIC) of AvBDs (SEQ ID NOs: 5, 6, 7, 8, 9, 10, 11, 12, and 13) were determined under low salt and standard conditions according to the guidelines of the Clinical and Laboratory Standards Institute (CLSI). […] An equal volume […] of bacterial suspension was added to each well of the plate. The final bacterial concentration in the wells was 5×10^5 CFU/ml. […] To complement MIC-1s assays, the minimum bactericidal concentrations (MBC) were evaluated by sub-culturing the contents of the first two clear wells obtained in the MIC-1s assay onto LB agar plates. All assays were conducted in triplicate. The lowest peptide concentration inhibiting about, at least, or more than 99% of bacterial growth was defined as MBC-1s. The analogues were regarded as bactericidal when the MBC was determined to be no more than four times the MIC.

[5] = test system: mouse red blood cells; format: cell-based
Experimental: The Hemolytic Assay includes the following procedures. Briefly, mouse red blood cells (RBCs, Innovative research, Novi, Mich.) were washed three times with phosphate-buffered saline (PBS, pH 7.4), centrifuged at 1000×g for 10 minutes, and re-suspended in PBS to 10% (v/v). The RBCs were treated with CAMPs (SEQ ID NOs: 1, 2, 3, and 4) at various concentrations ranging from 4 to 512 μg/ml (2-fold serial dilutions) at 37° C. for 1 hours. PBS and 0.2% Triton X-100 were used as negative and positive controls, respectively. The supernatant was transferred to a 96-well flat-bottomed polystyrene plate (Thermo Fisher Scientific), and the amount of hemoglobin released into the supernatant was determined by measuring the absorbance with a spectrophotometer at 540 nm. Hemolytic activity was expressed as the percentage of hemolysis and calculated using the following equation: hemolysis (%)=(As−A0)/(A100−A0)×100, where As is the absorbance of the sample, A100 is the absorbance of completely lysed RBCs in 0.2% Triton X-100, and A0 is the absorbance in the complete absence of hemolysis (PBS treatment). The assay was performed in triplicate. Therapeutic index (T.I.) was calculated according to a previously published formula: T.I.=MHC/MICGM. MHC was the minimum hemolytic concentration that caused 5% hemolysis of mouse RBCs. The MICGM was the minimum inhibitory concentration of the peptide concentrations against bacterial growth after the geometric mean was calculated. MICG− was the MICGM for Gram-negative bacteria; MICG+ was the MICGM for Gram-positive bacteria.

[6] = test system: CHO-K1 cells; experiment: Cell cytotoxicity assay (MTT); format: cell-based, hamster
Experimental: The Cell Cytotoxicity Assay includes the following procedures. Mouse immature dendritic cell line, JAWSII (ATCC CRL-11904™), was cultured in Alpha minimum essential medium with ribonucleosides, deoxyribonucleosides, 4 mM L-glutamine, 1 mM sodium pyruvate, and 5 ng/ml murine Granulocyte macrophage colony-stimulating factor (GM-CSF) then supplemented with 20% FBS, 100 U/ml penicillin, and 100 μg/ml streptomycin at 37° C. in humidified air with 5% CO2. CCR-2 transfected CHO-K1 cells were cultured in RPMI-1640 supplemented with 10% FBS, 2 mM L-glutamine, 100 units/ml penicillin and streptomycin, and 500 μg/ml G418 at 37° C. in humidified air with 5% CO2. The cytotoxicity of CAMPs (SEQ ID NOs: 1, 2, 3, and 4) to JASWII and CHO-K1 cells was determined using MTT (3-(4,5-dimethylthiazol-2-yl)-2,5-diphenyltetrazolium bromide, Thermo Fisher Scientific) cell proliferation assay. Cells (5×10^3 cells/well) in 96-well microtiter plates were treated with peptides at 64, 128, 256, and 512 μg/ml for 4, 12, 24, and 48 hours at 37° C. After treatment, 20 μl of 12 mM MTT solution was added to each well and the plate was incubated for 4 hours. The medium in each well was replaced with 100 μl of dimethyl sulfoxide (DMSO, Sigma-Aldrich) to dissolve MTT crystals. The plates were read using a spectrophotometer at 540 nm. The viability of treated cells was expressed as the percentage of viability relative to the untreated control. The experiment was performed in triplicate.
Chicken macrophage cell lines MQ-NCSU and HD11 were maintained in RPMI-1640 media supplemented with 10% fetal bovine serum (FBS), 2% chicken serum, 100 U/ml penicillin and 100 μg/ml streptomycin (Sigma-Aldrich) at 37° C. in humidified air with 5% CO2. CHO-K1 cells were cultured in the same media without 2% chicken serum. For CCR2-transfected CHO-K1 cells, medium was supplemented with 500 μg/ml G418 was added (Sigma-Aldrich). Murine immature dendritic cell line JAWSII (ATCC CRL-11904™) was cultured in Alpha minimum essential medium containing 4 mM L-glutamine, 1 mM sodium pyruvate, 5 ng/ml murine Granulocyte macrophage colony-stimulating factor (GM-CSF), 20% FBS, 100 U/ml penicillin and 100 μg/ml streptomycin at 37° C. in humidified air with 5% CO2. The cell cytotoxicity was determined using the MTT (3-(4,5-dimethylthiazol-2-yl)-2,5-diphenyltetrazolium bromide cell proliferation assay according to the manufacturer's instruction (Thermo Fisher Scientific). Briefly, cells (5×10^3 cells/well) were seeded in 96-well tissue culture plates, incubated overnight and treated with the analogues at concentrations of 4, 16, 64 and 256 μg/ml for 4, 12, 24 and 48 hours at 37° C. After treatment, […] 12 mM MTT solution was added to each well. The plate was incubated for 4 hours and read at 540 nm. Viability was expressed as percentage of viable cells relative to the untreated control. The experiments were performed in triplicate.

[7] = test system: Salmonella enteric serovar Typhimurium (ATCC 14028); experiment: Antimicrobial activity assay (colony counting), Example Two; format: cell-based, S. Typhimurium; details: 2 to 128 μg/ml, 37° C., 2 hours
Experimental: as §2, with “The numbers of bacterial colonies were enumerated after 16 hours of incubation at 37° C.” left out, “To assess the resistance of AvBD analogues (SEQ ID NOs: 5, 6, 7, 8, 9, 10, 11, 12, and 13) to sodium chloride (NaCl), antimicrobial assays were carried out in the presence of 5 mM, 50 mM, 100 mM or 150 mM NaCl. All assays were performed in triplicate.” left out

[8] = test system: S. aureus (ATCC 29213); format: cell-based; details: standard conditions, CLSI guidelines
Experimental: as §3

[9] = 64, 128, 256, and 512 μg/ml for 4 to 48 hours

GPDS[Abu]NHDRGL[Abu]RVGNCNPGEYLAKY[Abu]FEPVIL[Abu]CKPLSPTPTKT (disulfide 17-35) [AvBD-12A5]
chemotactic activity [1]: did not appear to exhibit chemotactic activity
chemotactic activity [2]: did not appear to exhibit chemotactic activity
impact of NaCl on the killing activity [3]: some impact on killing activity due to salt
MBS-Is [4]: >256 µg/mL

Ac-RRRWRKRRWWW-NH2 [CAMP-B, RRRWRKRRWWW]
T.I. of G+ (therapeutic index, MHC/MICGM) [5]: > 12.36±4.18
T.I. of G− (therapeutic index, MHC/MICGM) [5]: > 10.90±4.0
effect on cell viability [6, 9]: did not significantly affect cell viability

Ac-PIHRRIPPRWPRLKRRW-NH2 [CAMP-t2, PIHRRIPPRWPRLKRRW]
T.I. of G+ (therapeutic index, MHC/MICGM) [5]: >13.45 ± 4.48
T.I. of G− (therapeutic index, MHC/MICGM) [5]: >5.45 ± 2.54
effect on cell viability [6, 9]: did not significantly affect cell viability

GPDS[Abu]NHDRGLCRVGNCNPGEYLAKYCFEPVIL[Abu]CKPLSPTPTKT (disulfide 12-27, 17-35) [AvBD-12A4]
killing activity compared with AvBD-12 [7]: somewhat reduced
impact of NaCl on the killing activity [3]: some impact on killing activity due to salt
MBS-Is [4]: >256 µg/mL

GPRSSNHKRGLSRVGNSNPGKYLAKYAFRPVILAAKPLSPTPTKT [AvBD-12A2]
chemotactic index (C.I.) [1]: 2.37
chemotactic activity [2]: mild or little chemotactic activity
killing activity compared with parent peptide [3]: more effective than the parent peptide AvBD-12
impact of NaCl on the killing activity [3]: less adverse impact
MBS-Is [4]: 32 µg/mL

GPHSANHVRGLARVGNANPGLYLAKYAFIPVILAAKPLSPTPTKT [AvBD-12A1]
chemotactic activity [2]: mild or little chemotactic activity
killing activity compared with parent peptide [3]: more effective than the parent peptide AvBD-12
impact of NaCl on the killing activity [3]: some impact from NaCl
MBS-Is [4]: 256 µg/mL

GPRSANHKRGLARVGNANPGKYLAKYSFRPVILSSKPLSPTPTKT [AvBD-12A3]
effect on cell viability ([6]; 4, 16, 64, 256 μg/ml for 4, 12, 24, and 48 hour): did not appear to have any effect on cell viability

GPDS[Abu]NHDRGL[Abu]RVGN[Abu]NPGEYLAKY[Abu]FEPVIL[Abu][Abu]KPLSPTPTKT [AvBD-12A6]
chemotactic activity [1]: did not appear to exhibit chemotactic activity
chemotactic activity [2]: did not appear to exhibit chemotactic activity
impact of NaCl on the killing activity [3]: some impact on killing activity due to salt
MBS-Is [4]: >256 µg/mL

Ac-RKFLRRRGEVAHFSQKSLGLYCWWW-NH2 [CAMP-t1]
T.I. of G+ (therapeutic index, MHC/MICGM) [5]: >3.27 ± 2.41
T.I. of G− (therapeutic index, MHC/MICGM) [5]: >4.36 ± 1.21
effect on cell viability [6, 9]: did not significantly affect cell viability

Ac-LRRLKPLIRPWLRPLRRWWW-NH2 [CAMP-A]
T.I. of G+ (therapeutic index, MHC/MICGM) [5]: 6.54±2.01
T.I. of G− (therapeutic index, MHC/MICGM) [5]: 8.72±2.41
effect on cell viability ([6]; concentration at about 128 μg/ml or greater): somewhat decreased

GPDSCNHDRGLCRVGNCNPGEYLAKYCFEPVILCCKPLSPTPTKT (disulfide 5-34, 12-27, 17-35) [AvBD-12, reference compound]
chemotactic index (C.I.) [1]: 6.62
MBS-Is [4]: >256 µg/mL
MIC [8]: >256^ μg/ml
